Non-standard residues stand in square brackets, D forms with d. No end group written: not given here.
Key:
C2C12 cells [1] = assay: Cell Proliferation in C2C12 Cells (Cyquant DNA dye); assay type: cell-based, mouse; details: peptides 10 μM, 72 hours with readdition every 24 hours, relative to 0.1% DMSO control
Experimental: The effect of the peptides on cell proliferation was assessed using a DNA dye binding assay in cultured cells such as mouse myoblast cells. Peptides were initially prepared as 10 mM stock in DMSO, diluted to 1 mM in H2O, and added at a final concentration of 10 μM (0.1% DMSO). Lovastatin was used as a growth arrest control at final concentration of […]. […] C2C12 cells were grown in DMEM supplemented with 20% FBS with 100 IU/ml penicillin and 100 μg/ml streptomycin. […] C2C12 cells were seeded at 800 cells per well on 96-well plates. […] Cell proliferation was determined using Cyquant Direct Nucleic Acid Stain (Thermo Fisher Scientific, Waltham, Mass.) according to the manufacturer's instructions. Fluorescence for each sample well on the plate was measured using a Cytation 3 plate reader at Ex/Em=495/535 nm (BioTek, Winooski, Vt.). Activity was calculated relative to 0.1% DMSO untreated control. The relative standard deviation for the lovastatin control was <27%. The cell proliferation for the lovastatin control was <25% of the value for untreated control.

3T3-L1 mouse adipocytes = assay: Free Fatty Acid Levels in 3T3-L1 Mouse Adipocytes (Example 12, 10 μM); assay type: cell-based; details: peptides 10 μM, 20-22 hours then 3 hours with isoproterenol 1 nM, 3T3-L1 mouse adipocytes
Experimental: The effect of the peptides on fatty acid metabolism can be assessed using an assay of free fatty acid levels in cultured cells such as mouse adipocytes. Peptides were initially prepared as 10 mM stock in DMSO, diluted to 1 mM in H2O, and used at a final concentration of 10 μM (0.1% DMSO). […] After 20-22 hours, 1 nM isoproterenol was added to all wells except untreated controls and test peptides were replenished. Insulin at 100 nM was added to control wells. […] Free fatty acid concentrations in the media were determined using a Free Fatty Acid Assay kit (Zen-Bio) according to the manufacturer's instructions using a Cytation 3 plate reader at 540 nm (BioTek, Winooski, Vt.). Absorbance values were corrected for untreated background and expressed relative to isoproterenol treated cells. Treatment with isoproterenol (1 nM) alone was used as the free fatty acid level stimulatory control. The relative standard deviation of the isoproterenol control was <10%. […] Free fatty acid levels for insulin (100 nM) treatment were <5% of the isoproterenol control value.

[2] = system: Caspase 3/7 in C2C12 cells; assay: Caspase 3/7 Activity in C2C12 Cells; assay type: cell-based, mouse; details: peptides 10 μM, 24 hours, relative to 0.1% DMSO control
Experimental: The effect of the peptides on cell death/survival can be assessed using a caspase-3/7 assay in cultured cells such as mouse myoblast cells. Peptides were initially prepared as 10 mM stock in DMSO, diluted to 1 mM in H2O, and used at a final concentration of 10 μM (0.1% DMSO). […] Staurosporine (Abcam, Cambridge, Mass.) was dissolved at 10 mM in DMSO as a stock solution. Caspase-Glo 3/7 Assay Reagent was purchased from Promega (Madison, Wis.). C2C12 cell line was purchased from American Type Culture Collection (Manassas, Va.). C2C12 cells were grown in DMEM supplemented with 20% FBS with 100 IU/ml penicillin and 100 μg/ml streptomycin. Cultures were maintained at 37° C. in a humidified atmosphere of 5% CO2/95% air. C2C12 cells were seeded at 4,000 cells per well on 96-well plates. The next day cells were incubated with test peptides at 10 μM or staurosporine at concentrations between 100 nM and 5 nM using a final concentration of 0.1% DMSO and maintained at 37° C. in a humidified atmosphere of 5% CO2/95% air for 24 hours. Caspase 3/7 activity was determined using a Caspase-Glo 3/7 Assay kit according to the manufacturer's instructions. Luminescence for each sample well on the plate was measured using a Cytation 3 plate reader (BioTek, Winooski, Vt.). Activity was calculated relative to 0.1% DMSO control.

DIO mice = assay: Metabolic parameters in DIO mice, twice daily intraperitoneal, 10 days (Example 16); assay type: in vivo, mouse; details: 5 mg/kg, male DIO mice
Experimental: Male C57BL/6 mice were maintained on a high fat diet for 18 weeks to develop diet induced obesity. Animals were randomized to treatment groups based on blood glucose levels and body weight. The peptides of the invention were administered to groups of male DIO mice twice daily by intraperitoneal injection at a dose of 5 mg/kg/dose for 10 days (N=8 animals per treatment group). An additional group of male DIO mice (n=8) received vehicle (water) alone administered twice daily by intraperitoneal injection. Body weight, blood glucose levels and food intake were monitored. Body mass distribution (fat vs lean) was determined by quantitative whole body NMR prior to dosing and at the end of dosing.

C2C12 cells [3] = assay: Cellular ROS Levels Induced by TBHP in C2C12 Cells (DCFDA); assay type: cell-based, mouse; details: peptides 10 μM, 18-20 hours, then TBHP 100 μM 1 hour, relative to TBHP control
Experimental: The protective or synergistic effect of the peptides on cellular levels of reactive oxygen species (ROS) induced by oxidative stress can be assessed using an assay of ROS in cultured cells such as mouse myoblasts exposed to a suitable oxidative stress. Peptides were initially prepared as 10 mM stock in DMSO, diluted to 1 mM in H2O, and added at a final concentration of 10 μM (0.1% DMSO). […] TBHP was used at final concentration of 100 μM. Sulforaphane at final concentration of 10 µM was used as a protective control against TBHP induced ROS production. […] C2C12 cells were grown in DMEM supplemented with 20% FBS with 100 IU/ml penicillin and 100 μg/ml streptomycin. […] C2C12 cells were seeded at 7,500 cells per well on 96-well plates. […] After 18-20 hours of incubation the cells were loaded with DCFDA for 45 min. TBHP at 100 μM was then added to the appropriate wells for 1 hour. ROS activity was determined using a DCFDA Cellular ROS Detection Assay kit (Abcam, Cambridge, Mass.) according to the manufacturer's instructions. Fluorescence in each sample well on the plate was measured using a Cytation 3 plate reader at Ex/Em=485/535 nm (BioTek, Winooski, Vt.). Activity was calculated relative to TBHP control. The relative standard deviation of the sulforaphane control was <20%. The ROS level produced by the sulforaphane control in the presence of TBHP was 52% of the TBHP control.

C2C12 cells [4] = assay: ATP Levels in Cultured C2C12 Cells (CellTiter-Glo); assay type: cell-based, mouse; details: peptides 10 μM, 3 days with readdition every 24 hours, relative to 0.1% DMSO control
Experimental: The effect of the peptides on cellular metabolism can be assessed using an assay of ATP levels in cultured cells such as mouse myoblast cells. Peptides were initially prepared as 10 mM stock in DMSO, diluted to 1 mM in H2O, and used at a final concentration of 10 μM (0.1% DMSO). […] Lovastatin was prepared as 10 mM stock in 70% Ethanol and used at final concentration of 10 µM containing 0.1% DMSO. CellTiter-Glo® Assay kit was purchased from Promega (Madison, Wis.). […] C2C12 cells were grown in DMEM medium supplemented with 20% FBS with 100 IU/ml penicillin and 100 μg/ml streptomycin. […] C2C12 cells were seeded at 800 cells per well on 96-well plates. […] ATP levels were determined using a CellTiter-Glo Assay kit according to the manufacturer's instructions. Luminescence for each sample well on the plate was measured using a Cytation 3 plate reader (BioTek, Winooski, Vt.). Activity was calculated relative to 0.1% DMSO treated control. The relative standard deviation of the result for the 0.1% DMSO treated control was <5%. […] ATP levels for treatment with lovastatin (10 μM) were <50% of the 0.1% DMSO treated control value.

| Substance | Cell proliferation, Percent of Control (C2C12 cells [1]) [%] | Free fatty acid levels, Percent of Isoproterenol Control Activity (3T3-L1 mouse adipocytes) [%] | Caspase 3/7 activity, Percent of Control Activity [2] [%] | Difference from Vehicle Control: Decrease from Baseline in Blood Glucose (DIO mice) [mg/dL] | Difference from Vehicle Control: Decrease from Baseline in Body Weight (DIO mice) [%] | Difference from Vehicle Control: Decrease from Baseline in Fat Mass (DIO mice) [g] | Cellular ROS levels induced by TBHP, Percent of Control (C2C12 cells [3]) [%] | ATP levels, Percent of Control Activity (C2C12 cells [4]) [%] |
| --- | --- | --- | --- | --- | --- | --- | --- | --- |
| 11 (RLPGSAILTNPVL[dA]WVWV) [compound 11] | 98.1 | 47.2 | 98.7 | 4.76 | −1.81 | -1.09 | 103.5 | 100.7 |
| 17 (GS[dA]ILTNPVLGWVWV) [compound 17] | 110.0 | 88.5 | 97.1 |  |  |  | 100.8 | 103.8 |
| 18 (S[dA]ILTNPVLGWVWV) [compound 18] | 101.7 | 95.9 | 97.0 |  |  |  | 100.7 | 103.2 |

— patent publication US20220324912A1, “THERAPEUTIC PEPTIDES” (COHBAR, INC., priority 2019, published 2022)
